Experimental data published in US20230158005A1 (priority 2020, published 2023).
pEC50: −log10 of the molar value. Where “and” joins values, the source holds several entries; their conditions need not be identical. Equal values may be shown once.

Columns and labels:
[1] = test system: A/Solomon Islands/03/2006 (H1N1); type: cell-based, influenza A virus
[2] = test system: A/Hawaii/15/2001 (H1N1); type: cell-based, influenza A virus
[3] = test system: A/California/07/2009 (H1N1); type: cell-based, influenza A virus
[4] = test system: A/Minnesota/19/2011 (H1N1); type: cell-based, influenza A virus
[5] = test system: A/New Jersey/8/1976 (H1N1); type: cell-based, influenza A virus
[6] = test system: A/USSR/90/1977 (H1N1); type: cell-based, influenza A virus
[7] = test system: A/Puerto Rico/8/1934 (H1N1); type: cell-based, influenza A virus
[8] = test system: A/New Caledonia/20/1999 (H1N1); type: cell-based, influenza A virus
[9] = test system: A/Indiana/08/2011 (H3N2); type: cell-based, influenza A virus
[10] = test system: A/California/02/2014 (H3N2); type: cell-based, influenza A virus
[11] = test system: A/Texas/71/2007 (H3N2); type: cell-based, influenza A virus
[12] = test system: A/Perth/16/2009 (H3N2); type: cell-based, influenza A virus
[13] = test system: A/Fujian/413/2002 (H3N2); type: cell-based, influenza A virus
[14] = test system: A/Alaska/140/2015 (H3N2); type: cell-based, influenza A virus
[15] = test system: A/Hong Kong/156/1997 (H5N1); type: cell-based, influenza A virus
[16] = test system: A/Egypt/N6658/2011 (H5N1); type: cell-based, influenza A virus
[17] = test system: A/Vietnam/1203/2004 (H5N1); type: cell-based, influenza A virus
[18] = test system: A/Indonesia/05/2005 (H5N1); type: cell-based, influenza A virus
[19] = test system: A/Anhui/1/2013 (H7N9); type: cell-based, influenza A virus
[20] = test system: panel of 20 influenza A viruses; type: cell-based, influenza A virus
[21] = test system: NL4-3 WT HIV-1 virus; test: Infectious HIV-1 released by infected MT-2 cells (TZM-bl luciferase reporter); type: cell-based; conditions: 10 nM, 48 hours
[22] = test system: MT-2 human T cell line; test: Cytotoxicity against uninfected MT-2 cells; type: cell-based; conditions: 1 µM, 48 hours
[23] = test system: Nipah virus (Malaysian strain); test: microbe, parasite or virus in culture; type: cell-based
[24] = test system: A549 human lung carcinoma cells; conditions: human
[25] = in vitro; conditions: human, % Dif (absorbance as percent relative to the vehicle control, relative viability)
[26] = in vitro; conditions: human
[27] = test system: relapsed/refractory, locally advanced or metastatic solid tumors; conditions: preliminary clinical results, cited from earlier work

## CC1=C(COCCC(C)(C)C)C(=O)N(Nc2ccc(C(F)(F)F)c(Cl)n2)C1=O [felezonexor, 3-[(3,3-dimethylbutoxy)methyl]-1-{[6-chloro-5-(trifluoromethyl) (2-pyridyl)]amino}-4-methylazoline-2,5-dione]
[1]
  Virus titer AVG: 6.00 log10TCID50/mL and 7.17 log10TCID50/mL and 7.79 log10TCID50/mL
  Virus titer, replicates 1-3: 6.50 log10TCID50/mL and 6.75 log10TCID50/mL and 7.38 log10TCID50/mL and 5.75 log10TCID50/mL (2×) and 7.50 log10TCID50/mL (2×) and 8.50 log10TCID50/mL and 7.25 log10TCID50/mL
[2]
  Virus titer AVG: 2.67 log10TCID50/mL and 3.67 log10TCID50/mL and 4.83 log10TCID50/mL
  Virus titer, replicates 1-3: 2.50 log10TCID50/mL and 3.75 log10TCID50/mL (2×) and 4.75 log10TCID50/mL (2×) and 2.75 log10TCID50/mL (2×) and 3.50 log10TCID50/mL and 5.00 log10TCID50/mL
[3]
  Virus titer AVG: 2.75 log10TCID50/mL and 4.42 log10TCID50/mL and 5.42 log10TCID50/mL
  Virus titer, replicates 1-3: 3.25 log10TCID50/mL and 4.25 log10TCID50/mL and 5.50 log10TCID50/mL and 2.50 log10TCID50/mL (2×) and 4.50 log10TCID50/mL (2×) and 5.75 log10TCID50/mL and 5.00 log10TCID50/mL
  reduction in viral titers: greater than 1.0 log10TCID50/mL
[4]
  Virus titer, replicates 1-3: 2.50 log10TCID50/mL and 6.75 log10TCID50/mL (2×) and 7.25 log10TCID50/mL (2×) and 3.25 log10TCID50/mL and 8.50 log10TCID50/mL and 2.75 log10TCID50/mL and 9.25 log10TCID50/mL
  reduction in viral titers: greater than 1.0 log10TCID50/mL
[5]
  Virus titer AVG: 3.67 log10TCID50/mL and 4.00 log10TCID50/mL and 4.17 log10TCID50/mL
  Virus titer, replicates 1-3: 3.75 log10TCID50/mL (3×) and 3.50 log10TCID50/mL (2×) and 4.25 log10TCID50/mL (3×) and 4.50 log10TCID50/mL
  reduction in viral titers: greater than 1.0 log10TCID50/mL
[6]
  Virus titer, replicates 1-3: 1.50 log10TCID50/mL (3×) and 5.25 log10TCID50/mL and 5.75 log10TCID50/mL (3×) and 4.25 log10TCID50/mL (2×)
  reduction in viral titers: greater than 1.0 log10TCID50/mL
[7]
  Virus titer AVG: 3.42 log10TCID50/mL and 4.92 log10TCID50/mL
  Virus titer, replicates 1-3: 3.50 log10TCID50/mL (2×) and 3.25 log10TCID50/mL (3×) and 4.75 log10TCID50/mL and 4.50 log10TCID50/mL and 3.75 log10TCID50/mL and 5.50 log10TCID50/mL
  reduction in viral titers: greater than 1.0 log10TCID50/mL
[8]
  Virus titer AVG: 7.17 log10TCID50/mL and 6.83 log10TCID50/mL and 7.00 log10TCID50/mL
  Virus titer, replicates 1-3: 6.75 log10TCID50/mL (2×) and 7.25 log10TCID50/mL (2×) and 8.00 log10TCID50/mL and 6.50 log10TCID50/mL (3×) and 7.50 log10TCID50/mL
  reduction in viral titers: no reduction in viral titers
[9]
  Virus titer, replicates 1-3: 3.25 log10TCID50/mL (2×) and 5.50 log10TCID50/mL (2×) and 6.75 log10TCID50/mL and 6.50 log10TCID50/mL and 7.50 log10TCID50/mL and 2.75 log10TCID50/mL and 8.50 log10TCID50/mL
  reduction in viral titers: greater than 1.0 log10TCID50/mL
[10]
  Virus titer, replicates 1-3: 1.50 log10TCID50/mL (3×) and 5.25 log10TCID50/mL and 6.50 log10TCID50/mL (2×) and 4.75 log10TCID50/mL and 7.75 log10TCID50/mL and 4.50 log10TCID50/mL
  reduction in viral titers: greater than 1.0 log10TCID50/mL
[11]
  Virus titer AVG: 2.50 log10TCID50/mL and 3.33 log10TCID50/mL and 3.92 log10TCID50/mL
  Virus titer, replicates 1-3: 3.25 log10TCID50/mL (2×) and 4.00 log10TCID50/mL and 3.75 log10TCID50/mL (2×) and 2.75 log10TCID50/mL (2×) and 1.50 log10TCID50/mL and 4.25 log10TCID50/mL
  reduction in viral titers: greater than 1.0 log10TCID50/mL
[12]
  Virus titer, replicates 1-3: 2.25 log10TCID50/mL and 3.50 log10TCID50/mL (2×) and 4.75 log10TCID50/mL and 1.50 log10TCID50/mL and 4.25 log10TCID50/mL (2×) and 2.50 log10TCID50/mL and 3.25 log10TCID50/mL
[13]
  Virus titer AVG: 3.25 log10TCID50/mL and 3.50 log10TCID50/mL
  Virus titer, replicates 1-3: 3.00 log10TCID50/mL and 3.25 log10TCID50/mL (3×) and 3.50 log10TCID50/mL (2×) and 3.75 log10TCID50/mL (2×) and 2.75 log10TCID50/mL
  reduction in viral titers: no reduction in viral titers
[14]
  Virus titer, replicates 1-3: 1.50 log10TCID50/mL (4×) and 6.50 log10TCID50/mL and 2.50 log10TCID50/mL and 7.00 log10TCID50/mL and 2.25 log10TCID50/mL and 6.25 log10TCID50/mL
  reduction in viral titers: greater than 1.0 log10TCID50/mL
[15]
  Virus titer AVG: 2.42 log10TCID50/mL and 3.58 log10TCID50/mL and 4.50 log10TCID50/mL
  Virus titer, replicates 1-3: 2.25 log10TCID50/mL (2×) and 3.50 log10TCID50/mL (2×) and 4.25 log10TCID50/mL and 2.75 log10TCID50/mL and 4.75 log10TCID50/mL and 3.75 log10TCID50/mL and 4.50 log10TCID50/mL
  reduction in viral titers: greater than 1.0 log10TCID50/mL
[16]
  Virus titer AVG: 4.08 log10TCID50/mL and 4.33 log10TCID50/mL and 4.92 log10TCID50/mL
  Virus titer, replicates 1-3: 4.00 log10TCID50/mL and 4.25 log10TCID50/mL (2×) and 5.50 log10TCID50/mL and 4.50 log10TCID50/mL (3×) and 3.75 log10TCID50/mL and 4.75 log10TCID50/mL
  reduction in viral titers: greater than 1.0 log10TCID50/mL
[17]
  Virus titer AVG: 6.58 log10TCID50/mL and 8.50 log10TCID50/mL and 8.17 log10TCID50/mL
  Virus titer, replicates 1-3: 6.50 log10TCID50/mL (2×) and 8.25 log10TCID50/mL (2×) and 8.50 log10TCID50/mL and 6.75 log10TCID50/mL and 7.75 log10TCID50/mL (2×) and 9.50 log10TCID50/mL
  reduction in viral titers: greater than 1.0 log10TCID50/mL
[18]
  Virus titer AVG: 4.83 log10TCID50/mL and 6.92 log10TCID50/mL and 7.58 log10TCID50/mL
  Virus titer, replicates 1-3: 4.50 log10TCID50/mL and 6.50 log10TCID50/mL and 7.50 log10TCID50/mL (3×) and 5.25 log10TCID50/mL and 6.75 log10TCID50/mL and 4.75 log10TCID50/mL and 7.75 log10TCID50/mL
  reduction in viral titers: greater than 1.0 log10TCID50/mL
[19]
  Virus titer AVG: 1.50 log10TCID50/mL and 2.50 log10TCID50/mL and 2.67 log10TCID50/mL
  Virus titer, replicates 1-3: 1.50 log10TCID50/mL (3×) and 2.25 log10TCID50/mL and 2.75 log10TCID50/mL (3×) and 2.50 log10TCID50/mL (2×)
  reduction in viral titers: greater than 1.0 log10TCID50/mL
[20]
  strains with viral titers reduced at least 3-fold compared to untreated controls: 17 out of 20 strains
  strains with viral titers reduced at least 10-fold compared to untreated controls: 13 out of 20 strains
[21]
  reduction of the production of infectious virus: more than 50%
[22]
  MT-2 cells killed: about 50%
[23]
  selectivity index (SI, CC50/EC50): 12
[23]; Henipavirus nipahense, HeLa, 48 h, read-out: EC50 (compound concentration that reduces viral replication by 50%)
  pEC50: 7.70
[24]
  tolerated concentration (relative viability equivalent or greater than untreated controls): up to 100 nM
[24]; 0.5 µM
  % Dif (absorbance as percent relative to the vehicle control, relative viability): 71.6%
[25]
  viability at 0.05 µM: 101%
  viability at 0.1 µM: 125%
  viability at 0.25 µM: 66.2%
  viability at 0.5 µM: 71.6%
  viability at 1 µM: 58.7%
[26]
  CC50: 240 nM
[27]; 57 patients with solid tumors
  Safety and tolerability: manageable
  most common treatment related adverse events: gastrointestinal (nausea, vomiting, and diarrhea) and constitutional (fatigue, decreased appetite)
[27]; 57 patients, heavily pre-treated solid tumors
  antitumor activity: durable responses, including a partial response
